Assay results: ChEMBL document CHEMBL2429783, “Discovery of epigenetic regulator I-BET762: lead optimization to afford a clinical candidate inhibitor of the BET bromodomains” (J Med Chem, 2013)
Converted amounts (≈) assume the structure as drawn.

Experiments:
[1] = test system: PBMC; experiment: cells; conditions: Homo sapiens, read-out: pIC50 (converted)
Description: Antiinflammatory activity against human PBMC cells assessed as LPS-induced IL-6 production by chemiluminescence assay

[2] = Half life in buffer at pH 2 by HPLC analysis; assay type: physicochemical
[3] = physchem; conditions: FaSSIF, pH 6.5
Description: Solubility of the compound in FaSSIF at pH 6.5 after 16 hrs by HPLC analysis

[4] = molecular target: Bromodomain-containing protein 2 (Homo sapiens, UniProt P25440)
Description: Binding affinity to His6-tagged BRD2 (unknown origin) after 60 mins by fluorescence anisotropy binding Assay

[5] = molecular target: Bromodomain-containing protein 3 (Homo sapiens, UniProt Q15059)
Description: Binding affinity to His6-tagged BRD3 (unknown origin) after 60 mins by fluorescence anisotropy binding Assay

[6] = test system: Liver; conditions: dog, microsomes, 0.5 h
Description: Clearance in dog liver microsomes after 30 mins by LC/MS/MS analysis

[7] = test system: Salmonella typhimurium; experiment: Genotoxicity in Salmonella typhimurium TA1535 by Ames test; assay type: toxicity, organism-based; conditions: salmonella enterica subsp. enterica serovar typhimurium
[8] = in vivo; conditions: cynomolgus monkey, iv, 2 mg/kg
[9] = Terminal half life in CD rat at 1 mg/kg, iv after 1 hr; assay type: ADME, organism-based; design: dose 1 mg/kg, route intravenous; conditions: in vivo, read-out: beta t1/2 (converted)
[10] = Oral bioavailability in CD rat at 3 mg/kg after 1 hr; assay type: ADME, organism-based; conditions: in vivo
[11] = Oral bioavailability in beagle dog at 3 mg/kg after 1 hr; assay type: ADME, organism-based, Canis lupus familiaris; conditions: in vivo
[12] = in vivo; conditions: Balb/c, mouse, iv, 1 mg/kg
[13] = cynomolgus monkey, microsomes, 0.5 h
Description: Clearance in cynomolgus monkey liver microsomes after 30 mins by LC/MS/MS analysis

[14] = Fraction unbound in dog blood at 1000 ng/ml by equilibrium dialysis method; assay type: ADME, tissue-based, Canis lupus familiaris
[15] = Terminal half life in Balb/c mouse at 1 mg/kg, iv after 1 hr; assay type: ADME, organism-based; design: dose 1 mg/kg, route intravenous; conditions: in vivo, read-out: beta t1/2 (converted)
[16] = Fraction unbound in rat blood at 1000 ng/ml by equilibrium dialysis mehod; assay type: ADME, tissue-based
[17] = Fraction unbound in mouse blood at 1000 ng/ml by equilibrium dialysis method; assay type: ADME, tissue-based
[18] = in vivo; conditions: beagle, dog, iv, 1 mg/kg
[19] = Terminal half life in cynomolgus monkey at 2 mg/kg, iv after 1 hr; assay type: ADME, organism-based, Macaca fascicularis; design: dose 2 mg/kg, route intravenous; conditions: in vivo, read-out: beta t1/2 (converted)
[20] = test system: Salmonella typhimurium; experiment: Genotoxicity in Salmonella typhimurium TA100 by Ames test in presence of rat S9 mix; assay type: toxicity, organism-based; conditions: salmonella enterica subsp. enterica serovar typhimurium
[21] = Volume of distribution in cynomolgus monkey at 2 mg/kg, iv and 5 mg/kg, po after 1 hr; assay type: ADME, organism-based, Macaca fascicularis; conditions: in vivo
[22] = AUC (0 to infinity) in Balb/c mouse at 1 mg/kg, iv and 3 mg/kg, po after 1 hr; assay type: ADME, organism-based; conditions: plasma
[23] = test system: Salmonella typhimurium; experiment: Genotoxicity in Salmonella typhimurium TA98 by Ames test; assay type: toxicity, organism-based; conditions: salmonella enterica subsp. enterica serovar typhimurium
[24] = test system: Liver microsomes; conditions: rat, 0.5 h
Description: Clearance in rat liver microsomes after 30 mins by LC/MS/MS analysis

[25] = test system: Salmonella typhimurium; experiment: Genotoxicity in Salmonella typhimurium TA1535 by Ames test in presence of rat S9 mix; assay type: toxicity, organism-based; conditions: salmonella enterica subsp. enterica serovar typhimurium
[26] = Volume of distribution in beagle dog at 1 mg/kg, iv and 3 mg/kg, po after 1 hr; assay type: ADME, organism-based, Canis lupus familiaris; conditions: in vivo
[27] = test system: Rattus norvegicus; experiment: Antiinflammatory activity against po dosed Sprague-Dawley rat immunoinflammatory model assessed as inhibition of KLH-induced ear swelling administered qd for 7 days measured 24 hrs post KLH challenge relative to control; assay type: functional, organism-based
[28] = AUC (0 to infinity) in CD rat at 1 mg/kg, iv and 3 mg/kg, po after 1 hr; assay type: ADME, organism-based; conditions: plasma
[29] = AUC (0 to infinity) in beagle dog at 1 mg/kg, iv and 3 mg/kg, po after 1 hr; assay type: ADME, organism-based, Canis lupus familiaris; conditions: plasma
[30] = test system: Hepatocyte; conditions: human, hepatocytes, 2 h
Description: Clearance in human hepatocytes after 120 mins by LC/MS/MS analysis

[31] = cynomolgus monkey, hepatocytes, 2 h
Description: Clearance in cynomolgus monkey hepatocytes after 120 mins by LC/MS/MS analysis

[32] = test system: Salmonella typhimurium; experiment: Genotoxicity in Salmonella typhimurium TA1537 by Ames test; assay type: toxicity, organism-based; conditions: salmonella enterica subsp. enterica serovar typhimurium
[33] = Terminal half life in beagle dog at 1 mg/kg, iv after 1 hr; assay type: ADME, organism-based, Canis lupus familiaris; design: dose 1 mg/kg, route intravenous; conditions: in vivo, read-out: beta t1/2 (converted)
[34] = test system: Liver microsomes; conditions: human, 0.5 h
Description: Clearance in human liver microsomes after 30 mins by LC/MS/MS analysis

[35] = test system: Liver; conditions: mouse, microsomes, 0.5 h
Description: Clearance in mouse liver microsomes after 30 mins by LC/MS/MS analysis

[36] = Volume of distribution in Balb/c mouse at 1 mg/kg, iv and 3 mg/kg, po after 1 hr; assay type: ADME, organism-based; conditions: in vivo
[37] = test system: Salmonella typhimurium; experiment: Genotoxicity in Salmonella typhimurium TA98 by Ames test in presence of rat S9 mix; assay type: toxicity, organism-based; conditions: salmonella enterica subsp. enterica serovar typhimurium
[38] = Oral bioavailability in Balb/c mouse at 3 mg/kg after 1 hr; assay type: ADME, organism-based; conditions: in vivo
[39] = in vivo; conditions: CD, rat, iv, 1 mg/kg
[40] = test system: Hepatocyte; conditions: mouse, hepatocytes, 2 h
Description: Clearance in mouse hepatocytes after 120 mins by LC/MS/MS analysis

[41] = Fraction unbound in human blood at 1000 ng/ml by equilibrium dialysis method; assay type: ADME, tissue-based
[42] = test system: Salmonella typhimurium; experiment: Genotoxicity in Salmonella typhimurium TA1537 by Ames test in presence of rat S9 mix; assay type: toxicity, organism-based; conditions: salmonella enterica subsp. enterica serovar typhimurium
[43] = AUC (0 to infinity) in cynomolgus monkey at 2 mg/kg, iv and 5 mg/kg, po after 1 hr; assay type: ADME, organism-based, Macaca fascicularis; conditions: plasma
[44] = Volume of distribution in CD rat at 1 mg/kg, iv and 3 mg/kg, po after 1 hr; assay type: ADME, organism-based; conditions: in vivo
[45] = Oral bioavailability in cynomolgus monkey at 5 mg/kg after 1 hr; assay type: ADME, organism-based, Macaca fascicularis; conditions: in vivo
[46] = test system: Salmonella typhimurium; experiment: Genotoxicity in Salmonella typhimurium TA100 by Ames test; assay type: toxicity, organism-based; conditions: salmonella enterica subsp. enterica serovar typhimurium
[47] = dog, hepatocytes, 2 h
Description: Clearance in dog hepatocytes after 120 mins by LC/MS/MS analysis

[48] = test system: Hepatocyte; conditions: rat, hepatocytes, 2 h
Description: Clearance in rat hepatocytes after 120 mins by LC/MS/MS analysis

[49] = test system: HepG2; experiment: Upregulation of human apoA1 level in human HepG2 cells after 16 to 20 hrs by luciferase reporter gene assay; assay type: functional

Chain of Bromodomain-containing protein 3 (Q15059 whole entry): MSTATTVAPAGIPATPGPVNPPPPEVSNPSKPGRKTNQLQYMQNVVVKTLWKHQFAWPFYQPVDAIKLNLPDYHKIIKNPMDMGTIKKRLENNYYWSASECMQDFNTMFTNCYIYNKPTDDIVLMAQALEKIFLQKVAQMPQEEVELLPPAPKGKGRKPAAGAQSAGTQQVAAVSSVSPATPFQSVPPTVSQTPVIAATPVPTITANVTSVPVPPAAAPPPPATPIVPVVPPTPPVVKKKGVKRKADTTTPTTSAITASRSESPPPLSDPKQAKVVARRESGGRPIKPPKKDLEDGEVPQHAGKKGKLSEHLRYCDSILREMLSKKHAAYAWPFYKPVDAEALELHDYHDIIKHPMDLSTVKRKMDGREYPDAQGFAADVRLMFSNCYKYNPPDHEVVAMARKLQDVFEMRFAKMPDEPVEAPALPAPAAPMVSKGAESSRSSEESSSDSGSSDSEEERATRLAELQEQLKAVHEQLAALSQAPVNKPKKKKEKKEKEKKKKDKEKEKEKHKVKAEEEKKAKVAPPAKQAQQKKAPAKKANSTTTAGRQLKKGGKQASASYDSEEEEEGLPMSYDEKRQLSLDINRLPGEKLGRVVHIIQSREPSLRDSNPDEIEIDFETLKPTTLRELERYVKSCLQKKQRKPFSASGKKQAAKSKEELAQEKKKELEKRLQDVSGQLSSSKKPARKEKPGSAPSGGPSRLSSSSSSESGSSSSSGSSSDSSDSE
Chain of Bromodomain-containing protein 2 (P25440 whole entry): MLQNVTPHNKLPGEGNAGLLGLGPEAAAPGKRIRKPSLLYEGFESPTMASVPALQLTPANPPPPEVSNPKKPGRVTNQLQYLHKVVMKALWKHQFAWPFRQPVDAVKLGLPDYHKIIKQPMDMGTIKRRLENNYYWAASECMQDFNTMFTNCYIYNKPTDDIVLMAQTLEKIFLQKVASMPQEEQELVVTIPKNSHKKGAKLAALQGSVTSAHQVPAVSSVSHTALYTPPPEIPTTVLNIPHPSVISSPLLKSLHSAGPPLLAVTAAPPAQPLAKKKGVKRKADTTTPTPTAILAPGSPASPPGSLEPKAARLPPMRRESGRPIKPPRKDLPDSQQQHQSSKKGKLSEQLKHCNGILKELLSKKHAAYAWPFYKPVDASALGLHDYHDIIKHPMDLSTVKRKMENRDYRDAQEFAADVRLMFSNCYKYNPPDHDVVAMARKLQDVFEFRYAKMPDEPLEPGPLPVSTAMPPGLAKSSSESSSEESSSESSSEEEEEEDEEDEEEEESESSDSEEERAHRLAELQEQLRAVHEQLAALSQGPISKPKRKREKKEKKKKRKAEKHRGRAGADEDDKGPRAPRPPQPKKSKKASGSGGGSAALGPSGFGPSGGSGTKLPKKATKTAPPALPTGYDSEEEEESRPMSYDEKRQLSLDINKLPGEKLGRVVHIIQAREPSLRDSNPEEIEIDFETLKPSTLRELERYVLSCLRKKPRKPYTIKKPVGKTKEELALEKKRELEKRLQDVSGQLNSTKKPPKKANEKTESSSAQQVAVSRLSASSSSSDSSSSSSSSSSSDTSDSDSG

Work on CCOC(=O)N[C@@H]1N=C(c2ccccc2)c2ccccc2-n2c(C)nnc21 yielded an IC50 [1] of 200 nM and a half-life [2] of 13.8 min.
COc1ccc2c(c1)C(c1ccc(Cl)cc1)=N[C@@H](CC(=O)Nc1ccc(F)cc1)c1nnc(C)n1-2 gave a solubility at 16 h [3] of 105 µg/mL (≈ 214 µM) and an IC50 [1] of 2000 nM.
Cc1nnc2n1-c1ccccc1C(c1ccccc1)=NC2NC(=O)NCc1ccccc1 (centres undefined) gave an IC50 [1] of 398 nM, an IC50 [4] of 2000 nM and an IC50 [5] of 794 nM.
In the case of CCNC(=O)C[C@@H]1N=C(c2ccc(Cl)cc2)c2cc(OC)ccc2-n2c(C)nnc21 [MOLIBRESIB], the CLH [6] is reported as 0.69 mL/min/g, the Activity [7] is reported as “Non-toxic” and the IC50 [1] is reported as 316 nM. For the same compound, the clearance at 1 h [8] was 14 mL/min/kg, the half-life [9] was 30 min and the bioavailability [10] was 27%. For the same compound, the bioavailability [11] was 44%, the clearance at 1 h [12] was 75 mL/min/kg and the CLH [13] was 0.2 mL/min/g. It also gave a fraction unbound at 1000 ng/ml [14] of 0.24, a half-life [15] of 90 min and a fraction unbound at 1000 ng/ml [16] of 0.18. The fraction unbound at 1000 ng/ml [17] was 0.21, the clearance at 1 h [18] was 5 mL/min/kg and the half-life [19] was 90 min. For the same compound, the Activity [20] was “Non-toxic”, the Vd [21] was 1.5 L/kg and the AUC(0-inf) [22] was 468 ng·h/mL. For the same compound, the Activity [23] was “Non-toxic”, the CLH [24] was 1.45 mL/min/g and the Activity [25] was “Non-toxic”. For the same compound, the Vd [26] was 1.8 L/kg, the Activity [27] was “Dose-dependent effect” and the AUC(0-inf) [28] was 201 ng·h/mL. The AUC(0-inf) [29] was 4740 ng·h/mL, the CLH [30] was less than 0.86 mL/min/g and the CLH [31] was less than 0.085 mL/min/g. For the same compound, the Activity [32] was “Non-toxic”, the half-life [33] was 354 min and the CLH [34] was less than 0.53 mL/min/g. The CLH [35] was less than 0.53 mL/min/g, the Vd [36] was 6.5 L/kg and the Activity [37] was “Non-toxic”. The bioavailability [38] was 61%, the clearance at 1 h [39] was 63 mL/min/kg and the CLH [40] was less than 0.86 mL/min/g. The fraction unbound at 1000 ng/ml [41] was 0.19, the Activity [42] was “Non-toxic” and the AUC(0-inf) [43] was 3340 ng·h/mL. The Vd [44] was 1.8 L/kg, the bioavailability [45] was 52% and the Activity [46] was “Non-toxic”. For the same compound, the CLH [47] was less than 1.7 mL/min/g and the CLH [48] was less than 0.86 mL/min/g.
COc1ccc(C2=NC(NC(=O)OCc3ccccc3)c3nnc(C)n3-c3ccccc32)cc1 (centres undefined) gave an IC50 [1] of 316 nM, an IC50 [4] of 2000 nM and an IC50 [5] of 1000 nM.
For COc1ccc2c(c1)C(c1ccccc1)=NC(NC(=O)OCc1ccccc1)c1nnc(C)n1-2 (centres undefined), the IC50 [1] was 126 nM, the IC50 [4] was 794 nM and the IC50 [5] was 794 nM.
In the case of Cc1nnc2n1-c1ccccc1C(c1ccccc1)=NC2NC(=O)OCc1ccc(F)cc1 (centres undefined), the IC50 [1] is reported as 316 nM, the IC50 [4] is reported as 2000 nM and the IC50 [5] is reported as 1000 nM. It also gave a half-life [2] of 19.8 min.
For COc1ccc2c(c1)C(c1ccc(Cl)cc1)=N[C@@H](CC(=O)NCC1CC1)c1nnc(C)n1-2, the solubility at 16 h [3] was 111 µg/mL (≈ 247 µM).
Cc1nnc2n1-c1ccccc1C(c1ccccc1)=NC2NC(=O)CCc1ccccc1 (centres undefined) showed an IC50 [4] of 15800 nM and an IC50 [5] of 3160 nM.
With CCCCOC(=O)C[C@@H]1N=C(c2ccc(Cl)cc2)c2cc(OC)ccc2-n2c(C)nnc21 the solubility at 16 h [3] was 104 µg/mL (≈ 230 µM).
Work on Cc1nnc2n1-c1ccccc1C(c1ccccc1)=NC2NC(=O)OCc1ccccc1 (centres undefined) yielded an IC50 [1] of 158 nM, an EC170 [49] of 0.22 µM and a half-life [2] of 34.8 min.
Compound Cc1nnc2n1-c1ccccc1C(c1ccccc1)=NC2NS(=O)(=O)Cc1ccccc1 (centres undefined) has an IC50 [1] of 15800 nM and an IC50 [4] of 31600 nM.
Work on CCNC(=O)C[C@@H]1N=C(c2cccc(F)c2)c2cc(OC)ccc2-n2c(C)nnc21 yielded a solubility at 16 h [3] of 116 µg/mL (≈ 285 µM).
With Cc1nnc2n1-c1ccc(Cl)cc1C(c1ccccc1)=NC2NC(=O)OCc1ccccc1 (centres undefined) the IC50 [1] was 631 nM, the IC50 [4] was 3160 nM and the IC50 [5] was 1580 nM.
